In patent US20110262497A1, “NOVEL EZETIMIBE FORMULATIONS” (LEK Pharmaceuticals D.D., priority 2008, published 2011):

Assay: solubility of ezetimibe in water
Type: physicochemical

O=C1[C@H](CC[C@H](O)c2ccc(F)cc2)[C@@H](c2ccc(O)cc2)N1c1ccc(F)cc1 [ezetimibe, 1-(4-fluorophenyl)-3(R)-[3-(4-fluorophenyl)-3(S)-hydroxypropyl]-4(S)-(4-hydroxyphenyl)-2-azetidinone]
solubility: < 10 µg/mL
